Data as given in patent publication US20240101570A1 (AMGEN INC., priority 2020, published 2024).

Key:
[1] = tested on: HCT116 WT cells; test: HCT116 WT cell proliferation / viability (CellTiter-Glo, 6 days); assay type: cell-based; settings: Homo sapiens, HCT-116, 144 h, HCT116 WT cells, 6 days, CellTiter-Glo; read-out: HCT-116 WT IC50
Summary of the method: (§1)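 CellTiter-Glo luminescence, 6-day exposure, RPMI 1640 + 10% FBS. Dosing: 1:3 series (8-9 pts, top 1 or 10 μM) or 1:2 series (22 pts, top 10 or 50 μM), DMSO control. IC50 = 50% of control via curve fit.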

[2] = tested on: HCT116 MTAP null cells; test: HCT116 MTAP null cell proliferation / viability (CellTiter-Glo, 6 days); assay type: cell-based; settings: HCT116-MTAP null, 144 h, HCT116 MTAP null cells, 6 days, CellTiter-Glo; read-out: HCT-116 MTAP null IC50
Summary of the method: as §1

IC50 [1] | IC50 [2] | Compound
> 50 µM | 2270 nM | CCN(C(=O)c1cc2c3c(c(N)nc2cn1)COC3)[C@@H](c1ccc(C(F)(F)F)nn1)C1CC1 [Example 767, 4-amino-N-((R)-cyclopropyl(6-(trifluoromethyl)-3-pyridazinyl)methyl)-N-ethyl-1,3-dihydrofuro[3,4-c][1,7]naphthyridine-8-carboxamide]
> 50 µM | 4230 nM | C[C@@H](NC(=O)c1ccc2nc(N)c3c(c2c1)CO[C@@H]3C)c1ccc(C(F)(F)F)cn1 [Example 768, (3R)-4-amino-3-methyl-N-((1R)-1-(5-(trifluoromethyl)-2-pyridinyl)ethyl)-1,3-dihydrofuro[3,4-c]quinoline-8-carboxamide]
7.5 µM | 115 nM | Cc1ccc(CN(C)C(=O)c2cc3c(cc2F)nc(N)c2cnn(C)c23)nc1 [Example 769, 4-amino-7-fluoro-N,1-dimethyl-N-((5-methyl-2-pyridinyl)methyl)-1H-pyrazolo[4,3-c]quinoline-8-carboxamide]
19.4 µM | 253 nM | CN(Cc1ccc(F)cn1)C(=O)c1cc2c(cc1F)nc(N)c1cnn(C)c12 [Example 770, 4-amino-7-fluoro-N-((5-fluoro-2-pyridinyl)methyl)-N,1-dimethyl-1H-pyrazolo[4,3-c]quinoline-8-carboxamide]
31.1 µM | 395 nM | CN(Cc1ccc(F)nc1F)C(=O)c1cc2c(cc1F)nc(N)c1cnn(C)c12 [Example 771, 4-amino-N-((2,6-difluoro-3-pyridinyl)methyl)-7-fluoro-N,1-dimethyl-1H-pyrazolo[4,3-c]quinoline-8-carboxamide]
2.63 µM | 106 nM | CCN(C(=O)c1cc2c3c(c(N)nc2cn1)COC3)[C@H](C)c1ccc(C(F)F)cn1 [Example 773, 4-amino-N-((1R)-1-(5-(difluoromethyl)-2-pyridinyl)ethyl)-N-ethyl-1,3-dihydrofuro[3,4-c][1,7]naphthyridine-8-carboxamide]
40.6 µM | 736 nM | C[C@H](c1cnc(C(F)(F)F)cn1)N(C)C(=O)c1ccc2nc(N)c3c(c2c1)COC3 [Example 774, 4-amino-N-methyl-N-((1R)-1-(5-(trifluoromethyl)-2-pyrazinyl)ethyl)-1,3-dihydrofuro[3,4-c]quinoline-8-carboxamide]
2.68 µM | 33 nM | CCN(C(=O)c1ccc2nc(N)c3c(c2c1)CO[C@@H]3C)[C@H](C)c1ccc(C(F)F)cn1 [Example 775, (3R)-4-amino-N-((1R)-1-(5-(difluoromethyl)-2-pyridinyl)ethyl)-N-ethyl-3-methyl-1,3-dihydrofuro[3,4-c]quinoline-8-carboxamide]
> 10 µM | 150 nM | C[C@H](c1cnc(C(F)(F)F)cn1)N(C)C(=O)c1ccc2nc(N)c3cnn(C)c3c2c1 [Example 776, 4-amino-N,1-dimethyl-N-((1R)-1-(5-(trifluoromethyl)-2-pyrazinyl)ethyl)-1H-pyrazolo[4,3-c]quinoline-8-carboxamide]
1.38 µM | 25 nM | CCN(C(=O)c1ccc2nc(N)c3c(c2c1)CO[C@@H]3C)[C@H](C)c1ccc(C(F)(F)F)cn1 [Example 777, (3R)-4-amino-N-ethyl-3-methyl-N-((1R)-1-(5-(trifluoromethyl)-2-pyridinyl)ethyl)-1,3-dihydrofuro[3,4-c]quinoline-8-carboxamide]
2.66 µM | 49 nM | CCN(C(=O)c1ccc2nc(N)c3c(c2c1)CO[C@@H]3C)[C@H](C)c1ccc(C(F)(F)F)nn1 [Example 778, (3R)-4-amino-N-ethyl-3-methyl-N-((1R)-1-(6-(trifluoromethyl)-3-pyridazinyl)ethyl)-1,3-dihydrofuro[3,4-c]quinoline-8-carboxamide]
28.9 µM | 364 nM | C[C@H](c1ccc(C(F)(F)F)nn1)N(C)C(=O)c1cc2c(cc1F)nc(N)c1c2cnn1C [Example 779, 4-amino-7-fluoro-N,3-dimethyl-N-((1R)-1-(6-(trifluoromethyl)-3-pyridazinyl)ethyl)-3H-pyrazolo[3,4-c]quinoline-8-carboxamide]
